Laboratory results: patent US20090155881A1, “CELL-FREE PROTEIN SYNTHESIS METHOD AND CELL-FREE PROTEIN SYNTHESIS REACTION SOLUTION USING ADENOSINE 3',5'-BISPHOSPHATE” (priority 2007, published 2009)

System: mRNA
Experiment: mRNA degradation suppressing effect in the cell-free protein synthesis reaction solution (Transdirect insect cell); remaining mRNA detected by agarose electrophoresis and EtBr staining
Format: biochemical, Spodoptera frugiperda
Details: for degradation suppressing effect: after 240 minutes
Procedure: Using Transdirect insect cell (SHIMADZU CORPORATION), each of the following reaction solutions was prepared in a scale of 50 μL. Transdirect insect cell is a cell-free protein synthesis reaction solution containing an extract from Sf21, and contains a potassium salt, a magnesium salt, adenosine triphosphate, guanosine triphosphate, creatine phosphate, creatine kinase, an amino acid component, a tRNA, a foreign mRNA, and a buffer as ingredients other than the extract derived from Sf21.
As the RNase inhibitor, an RNase inhibitor derived from a human placenta (TAKARA BIO) was used, and as the pAp, Adenosine 3′,5′-diphosphate sodium salt (SIGMA-ALDRICH) was used, and prepared as an aqueous solution of 100 mM. Each reaction solution was subjected to a translation reaction at 25° C.
For each reaction solution, reaction solutions after 0, 60, and 120 minutes from starting of a translation reaction were recovered. 10 μL of the recovered reaction solution was collected into 20 μL of TRIzol LS Reagent (Invitrogen), and the whole RNA was extracted. The extracted RNA was dissolved in 10 μL of pure water.
To each solution of extracted RNA, 4 μL of a loading buffer (Wako Pure Chemical Industries) was added, and the total was subjected to electrophoresis (a TAE buffer, 1% agarose gel). The RNA separated by electrophoresis was detected by EtBr (ethidium bromide) staining.
By the same steps as Steps 1 to 3 of Example 1, a translation reaction was conducted for the following reaction solutions.
As for Reaction Solution 6, pAp was added before the reaction so that the final concentration was 5 mM, and after 60 minutes from starting of the reaction, 2.5 μL of a 100 mM pAp aqueous solution prepared in step 3 was added. As a result, the pAp concentration of supplemented pAp excluding the pAp that was present from the initial stage of the reaction was 5 mM.
Steps 4 and 5 as same as those in Example 1 were conducted except that for each reaction solution, the reaction solution was recovered after 0, 120, 180, and 240 minutes from starting of the translation reaction.
In Reaction Solutions 7 and 8, a 4M aqueous LiCl solution was prepared for stock, and using the stock solution, the final concentration in the reaction solution was adjusted to 50 mM.
Steps 4 and 5 were conducted in the same manner as in Example 1 except that for each reaction solution, the reaction solution was recovered after 0, 180, and 240 minutes from starting of the translation reaction.

[Cl-].[Li+] [LiCl, lithium chloride]
mRNA remaining (electrophoresis) (LiCl 50 mM alone, no pAp (lane 7), after 180 minutes): almost all the mRNA was degraded

Nc1ncnc2c1ncn2[C@@H]1O[C@H](COP(=O)(O)O)[C@@H](OP(=O)(O)O)[C@H]1O [pAp, adenosine 3′,5′-bisphosphate]
degradation suppressing effect (5 mM pAp plus supplementation of 5 mM pAp after 60 minutes (Reaction Solution 6)): sustained
RNA degradation suppressing effect (5 mM pAp, supplementation not conducted (Reaction Solution 4), after 180 minutes): lost with time
degradation suppressing effect (10 mM pAp, supplementation not conducted (Reaction Solution 5)): sustained
mRNA remaining (electrophoresis) (pAp 5 mM alone, no LiCl (lane 4), after 180 minutes): almost all the mRNA was degraded
mRNA degradation suppressing effect (pAp final concentration 5 mM, no RNase inhibitor (Reaction Solution 4), reaction times 60 and 120 minutes, 25° C.): apparent degradation suppressing effect

B1: RNase inhibitor: RNase inhibitor derived from a human placenta (TAKARA BIO) (protein, UniProt P13489 2-461, looked up)
Ribonuclease inhibitor: SLDIQSLDIQCEELSDARWAELLPLLQQCQVVRLDDCGLTEARCKDISSALRVNPALAELNLRSNELGDVGVHCVLQGLQTPSCKIQKLSLQNCCLTGAGCGVLSSTLRTLPTLQELHLSDNLLGDAGLQLLCEGLLDPQCRLEKLQLEYCSLSAASCEPLASVLRAKPDFKELTVSNNDINEAGVRVLCQGLKDSPCQLEALKLESCGVTSDNCRDLCGIVASKASLRELALGSNKLGDVGMAELCPGLLHPSSRLRTLWIWECGITAKGCGDLCRVLRAKESLKELSLAGNELGDEGARLLCETLLEPGCQLESLWVKSCSFTAACCSHFSSVLAQNRFLLELQISNNRLEDAGVRELCQGLGQPGSVLRVLWLADCDVSDSSCSSLAATLLANHSLRELDLSNNCLGDAGILQLVESVRQPGCLLEQLVLYDIYWSEEMEDRLQALEKDKPSLRVIS
mRNA degradation suppressing effect (RNase inhibitor final concentration 1 U/μL, no pAp (Reaction Solution 3 vs Reaction Solution 2), 0, 60, 120 minutes): not observed
